Like-named read-outs stand apart in the source and are kept apart here.
What was measured:
[1] = target: T1, SUMO E1 (Homo sapiens, UniProt Q9UBT2); experiment: SUMO E1 inhibition: UBC9-SUMO1 conjugation by SDS gel electrophoresis; format: biochemical; settings: read-out: SUMO E1 percent inhibition of adduct formation; for inhibition at 25 µM: 25 uM compound; for inhibition at 9 µM: 9 uM compound; for inhibition at 1 µM: 1 uM compound; for inhibition at 10 µM: 10 uM compound; for inhibition at 27 µM: 27 uM compound
T1 sequence (Q9UBT2 1-640): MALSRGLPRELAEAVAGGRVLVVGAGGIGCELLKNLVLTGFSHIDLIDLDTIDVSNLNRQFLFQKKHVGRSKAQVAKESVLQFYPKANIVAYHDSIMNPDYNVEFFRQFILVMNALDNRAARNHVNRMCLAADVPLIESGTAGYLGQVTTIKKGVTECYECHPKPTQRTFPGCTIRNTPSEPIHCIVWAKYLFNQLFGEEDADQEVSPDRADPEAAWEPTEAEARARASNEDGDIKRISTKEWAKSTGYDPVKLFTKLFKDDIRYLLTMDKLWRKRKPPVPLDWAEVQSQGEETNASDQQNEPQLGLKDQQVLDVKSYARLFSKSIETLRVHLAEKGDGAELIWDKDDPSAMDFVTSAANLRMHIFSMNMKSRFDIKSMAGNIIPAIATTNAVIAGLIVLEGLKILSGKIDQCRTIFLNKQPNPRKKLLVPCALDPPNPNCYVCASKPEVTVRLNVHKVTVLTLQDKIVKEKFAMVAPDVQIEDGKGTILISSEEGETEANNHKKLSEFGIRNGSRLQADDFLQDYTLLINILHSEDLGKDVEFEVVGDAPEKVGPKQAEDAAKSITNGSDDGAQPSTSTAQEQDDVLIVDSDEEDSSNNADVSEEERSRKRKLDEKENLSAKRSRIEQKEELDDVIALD
T1 sequence (Q9UBE0 1-346 partner): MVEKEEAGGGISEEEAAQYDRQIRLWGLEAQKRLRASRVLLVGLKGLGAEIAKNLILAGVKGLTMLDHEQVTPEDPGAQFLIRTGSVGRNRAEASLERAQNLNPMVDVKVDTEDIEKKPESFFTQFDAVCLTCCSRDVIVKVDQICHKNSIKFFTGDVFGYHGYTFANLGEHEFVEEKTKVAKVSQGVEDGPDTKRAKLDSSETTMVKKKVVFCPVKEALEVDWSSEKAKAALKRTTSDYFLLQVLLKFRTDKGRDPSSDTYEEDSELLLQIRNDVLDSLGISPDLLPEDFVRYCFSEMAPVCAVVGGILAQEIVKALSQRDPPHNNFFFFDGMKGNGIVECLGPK
Experimental: (§1) Compounds are evaluated for their inhibitory effect on activating enzymes (E1) of ubiquitin, SUMO, Nedd8, Urm1, ISG15 or Atg7 using previously reported methods and protocols. One example is in: Allosteric inhibition of ubiquitin-like modifications by a class of inhibitor of SUMO-activating enzyme. Cell Chemical Biology, 26, 1-11, 2019. PMID: 28051857.
(§2) Compounds are tested in the following manner. The compound and SUMO E1 are incubated for a predetermined amount of time. UBC9, SUMO1, and ATP are added to the E1-compound mixture and incubated at 37° C. The reaction is quenched with Laemmli Buffer. The UBC9-SUMO1 conjugation is analyzed via SDS gel electrophoresis. The percent inhibition is measured by the intensity of the UBC9-SUMO1 band compared to the no compound control. Activities are listed as compound concentration (uM), preincubation time of E1 with compound (min), and percent inhibition of adduct formation (%). […]

[2] = target: T2, Atg7 (Homo sapiens, UniProt O95352); experiment: Atg7 activating enzyme (E1) inhibition; format: biochemical; settings: 25 uM compound, 60 min preincubation; read-out: Atg7 percent inhibition of adduct formation
T2 sequence (O95352 1-703): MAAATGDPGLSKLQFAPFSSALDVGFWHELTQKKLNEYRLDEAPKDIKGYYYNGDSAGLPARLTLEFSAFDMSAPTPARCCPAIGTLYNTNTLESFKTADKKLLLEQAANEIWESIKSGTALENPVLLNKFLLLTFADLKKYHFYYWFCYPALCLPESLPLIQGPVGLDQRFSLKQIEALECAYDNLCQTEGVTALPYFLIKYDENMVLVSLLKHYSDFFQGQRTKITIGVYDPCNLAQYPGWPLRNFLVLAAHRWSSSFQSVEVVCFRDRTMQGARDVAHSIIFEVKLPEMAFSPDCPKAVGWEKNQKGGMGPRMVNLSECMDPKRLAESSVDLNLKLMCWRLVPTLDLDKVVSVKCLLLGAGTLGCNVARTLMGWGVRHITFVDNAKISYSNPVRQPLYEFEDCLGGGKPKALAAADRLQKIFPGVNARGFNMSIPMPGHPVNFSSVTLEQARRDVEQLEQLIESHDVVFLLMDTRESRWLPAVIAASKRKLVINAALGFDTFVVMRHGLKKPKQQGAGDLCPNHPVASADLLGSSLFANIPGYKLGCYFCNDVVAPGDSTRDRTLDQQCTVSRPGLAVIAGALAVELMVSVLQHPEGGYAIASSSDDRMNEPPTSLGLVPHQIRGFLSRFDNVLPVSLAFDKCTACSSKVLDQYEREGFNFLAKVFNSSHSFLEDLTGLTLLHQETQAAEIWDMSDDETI
Experimental: as §1, §2

C=CC(=O)N1Cc2sc(C)cc2[C@@H](c2ccccc2)C1 [Compound 74]
inhibition at 25 µM ([1]; 60 min preincubation): 10% | inhibition at 25 µM [2]: < 1%

C=CC(=O)N1Cc2ccccc2[C@@H](C(=O)OC)C1 [Compound 27]
inhibition at 25 µM ([1]; 60 min preincubation): < 1% | inhibition at 25 µM [2]: < 1%

C=CC(=O)N1Cc2sc(Cl)cc2[C@@H](c2ccccc2C)C1 [Compound 84]
inhibition at 2.5 µM ([1]; 2.5 uM compound, 30 min preincubation): 90% | inhibition at 25 µM [2]: < 1%

C=CC(=O)N1Cc2cc(Cl)ccc2[C@@H](c2ccc[nH]c2=O)C1 [Compound 94]
inhibition at 9 µM ([1]; 30 min preincubation): < 1% | inhibition at 25 µM [2]: < 1%

C=CC(=O)N1CCc2cc(Oc3cccnc3)ccc2C1 [Compound 54]
inhibition at 25 µM ([1]; 60 min preincubation): 10% | inhibition at 25 µM [2]: < 1%

O=C(/C=C/C(F)(F)F)N1Cc2sc(Cl)cc2[C@@H](c2ccccc2F)C1 [Compound 120]
inhibition at 1 µM ([1]; 30 min preincubation): 100% | inhibition at 25 µM [2]: < 1%

C=CC(=O)N1Cc2cc(Br)ccc2[C@@H](c2ccccc2O)C1 [Compound 77]
inhibition at 25 µM ([1]; 60 min preincubation): 20% | inhibition at 25 µM [2]: 30%

C#CC(=O)N1Cc2sc(Cl)cc2[C@@H](c2ccccc2C)C1 [Compound 93]
inhibition at 9 µM ([1]; 30 min preincubation): 95% | inhibition at 25 µM [2]: 100%

C=CC(=O)N1Cc2ccc(Br)cc2[C@@H](c2ccccc2Cl)C1 [Compound 46]
inhibition at 9 µM ([1]; 30 min preincubation): 50% | inhibition at 25 µM [2]: < 1%

C=CC(=O)N1CCc2cc(Oc3ccccc3)ccc2C1 [Compound 24]
inhibition at 25 µM ([1]; 60 min preincubation): 50% | inhibition at 25 µM [2]: < 1%

C=CC(=O)N1Cc2ccc(-c3ccccc3)cc2[C@@H](c2ccccc2)C1 [Compound 38]
inhibition at 25 µM ([1]; 60 min preincubation): < 1% | inhibition at 25 µM [2]: < 1%

C=CC(=O)N1Cc2cc(Cl)ccc2[C@@H](c2cccnc2)C1 [Compound 87]
inhibition at 9 µM ([1]; 30 min preincubation): < 1% | inhibition at 25 µM [2]: < 1%

C=CC(=O)N1Cc2cccc(Br)c2[C@@H](c2ccccc2OC)C1 [Compound 71]
inhibition at 25 µM ([1]; 60 min preincubation): 20% | inhibition at 25 µM [2]: < 1%

Cc1ccccc1[C@H]1CN(C(=O)/C=C/C(F)F)Cc2sc(Cl)cc21 [Compound 122]
inhibition at 1 µM ([1]; 30 min preincubation): 100% | inhibition at 25 µM [2]: < 1%

C=CC(=O)N1Cc2cc(Br)ccc2[C@@H](c2ccccc2OC)C1 [Compound 70]
inhibition at 10 µM ([1]; 60 min preincubation): 60% | inhibition at 25 µM [2]: < 1%

C=CC(=O)N1CCc2cc(Oc3cccc(C)c3)ccc2C1 [Compound 53]
inhibition at 25 µM ([1]; 60 min preincubation): < 1% | inhibition at 25 µM [2]: < 1%

C=CC(=O)N1Cc2ccc(Br)cc2[C@@H](c2ccccc2C(F)(F)F)C1 [Compound 57]
inhibition at 25 µM ([1]; 60 min preincubation): 90% | inhibition at 25 µM [2]: < 1%

O=C(/C=C/C(F)(F)F)N1Cc2sc(Cl)cc2[C@@H](c2ccccc2CC2CCOCC2)C1 [Compound 141]
inhibition at 1 µM ([1]; 30 min preincubation): 50% | inhibition at 25 µM [2]: < 1%

C=CC(=O)N1Cc2cccc(Br)c2[C@@H](c2ccccc2C)C1 [Compound 69]
inhibition at 10 µM ([1]; 60 min preincubation): 60% | inhibition at 25 µM [2]: < 1%

C=CC(=O)N1Cc2ccc(CC)cc2[C@@H](c2ccccc2)C1 [Compound 41]
inhibition at 25 µM ([1]; 60 min preincubation): < 1% | inhibition at 25 µM [2]: < 1%

C=CC(=O)N1Cc2sc(CC)cc2[C@@H](c2ccccc2)C1 [Compound 82]
inhibition at 10 µM ([1]; 30 min preincubation): 10% | inhibition at 25 µM [2]: < 1%

C=CC(=O)N1Cc2sc(Cl)cc2[C@@H](c2ccccc2OCCCN2CCCC2)C1 [Compound 153]
inhibition at 6 µM ([1]; 6 uM compound, 15 min preincubation): < 1% | inhibition at 25 µM [2]: < 1%

C=CC(=O)N1Cc2ccc(Oc3ccccc3)cc2[C@@H](c2ccccc2)C1 [Compound 30]
inhibition at 25 µM ([1]; 60 min preincubation): < 1% | inhibition at 25 µM [2]: < 1%

Cc1ccccc1[C@H]1CN(C(=O)/C=C/C(F)(F)F)Cc2sc(Cl)cc21 [Compound 108]
inhibition at 1 µM ([1]; 30 min preincubation): 100% | inhibition at 25 µM [2]: < 1%

C=CC(=O)N1CCc2cc(Br)ccc2C1 [Compound 3]
inhibition at 25 µM ([1]; 60 min preincubation): 70% | inhibition at 25 µM [2]: < 1%

C=CC(=O)N1Cc2ccc(CCO)cc2[C@@H](c2ccccc2)C1 [Compound 40]
inhibition at 25 µM ([1]; 60 min preincubation): < 1% | inhibition at 25 µM [2]: < 1%

C=CC(=O)N1CCc2ccccc2[C@@H](c2ccccc2)C1 [Compound 139]
inhibition at 27 µM ([1]; 30 min preincubation): < 1% | inhibition at 25 µM [2]: < 1%

C=CC(=O)N1Cc2ccc(NC(=O)c3cccnc3)cc2C1 [Compound 16]
inhibition at 25 µM ([1]; 60 min preincubation): 20% | inhibition at 25 µM [2]: < 1%

C=CC(=O)N1CCc2cc(Cc3ccccc3)ccc2C1 [Compound 7]
inhibition at 25 µM ([1]; 30 min preincubation): 20% | inhibition at 25 µM [2]: < 1%

Cc1ccccc1[C@H]1CN(C(=O)/C=C/c2ccccc2)Cc2sc(Br)cc21 [Compound 90]
inhibition at 25 µM ([1]; 60 min preincubation): < 1% | inhibition at 25 µM [2]: < 1%

C=CC(=O)N1Cc2ccccc2[C@@](C)(c2ccccc2)C1 [Compound 59]
inhibition at 25 µM ([1]; 60 min preincubation): 40% | inhibition at 25 µM [2]: < 1%

C=CC(=O)N1Cc2ccccc2C1 [Compound 13]
inhibition at 25 µM ([1]; 60 min preincubation): < 1% | inhibition at 25 µM [2]: < 1%

C=CC(=O)N1Cc2ccc(Oc3cccnc3)cc2[C@@H](c2ccccc2)C1 [Compound 31]
inhibition at 25 µM ([1]; 60 min preincubation): < 1% | inhibition at 25 µM [2]: < 1%

C=CC(=O)N1Cc2ccc(Br)cc2C1 [Compound 9]
inhibition at 25 µM ([1]; 60 min preincubation): < 1% | inhibition at 25 µM [2]: < 1%

C=CC(=O)Nc1cccc([C@H]2CN(C(=O)C=C)Cc3ccccc32)c1 [Compound 52]
inhibition at 25 µM ([1]; 60 min preincubation): 50% | inhibition at 25 µM [2]: < 1%

Cc1cc2c(s1)CN(C(=O)CC#N)C[C@@H]2c1ccccc1 [Compound 95]
inhibition at 9 µM ([1]; 30 min preincubation): < 1% | inhibition at 25 µM [2]: < 1%

C=CC(=O)N1Cc2sccc2[C@@H](c2ccc(OC)cc2)C1 [Compound 155]
inhibition at 15 µM ([1]; 15 uM compound, 15 min preincubation): < 1% | inhibition at 25 µM [2]: < 1%

C=CC(=O)N1Cc2ccc(Br)cc2[C@@H](c2c(Cl)cccc2Cl)C1 [Compound 56]
inhibition at 25 µM ([1]; 60 min preincubation): < 1% | inhibition at 25 µM [2]: < 1%

C=CC(=O)N1Cc2cc(C#N)ccc2[C@@H](c2ccccc2)C1 [Compound 79]
inhibition at 25 µM ([1]; 60 min preincubation): < 1% | inhibition at 25 µM [2]: < 1%

Cc1ccccc1[C@H]1CN(C(=O)/C=C/C(F)(F)c2ccccn2)Cc2sc(Cl)cc21 [Compound 143]
inhibition at 27 µM ([1]; 30 min preincubation): < 1% | inhibition at 25 µM [2]: < 1%

C=C(F)C(=O)N1Cc2sc(Cl)cc2[C@@H](c2ccccc2C)C1 [Compound 104]
inhibition at 25 µM ([1]; 30 min preincubation): < 1% | inhibition at 25 µM [2]: < 1%

C=CC(=O)N1Cc2ccccc2[C@@H](c2ccccc2)C1 (stereo in doubt) [Compound 11]
inhibition at 10 µM ([1]; 60 min preincubation): 90% | inhibition at 25 µM [2]: < 1%

From patent US12398151B2, “Sumo inhibitor compounds and uses thereof” (SUVALENT THERAPEUTICS, INC., priority 2019, dated 2025)
